US20050187208A1 (priority 2004, published 2005)
Counter-ions that a name gives are not always drawn.

What was measured:
[1] = target: T1, transfected human CB1 receptor (Homo sapiens, UniProt P21554); assay: In-vitro determination of affinity to CB1 receptor, radioligand [^3H]-CP55940; type: binding; settings: read-out: CB1 Receptor % Inhibition 10^−6 M
T1 construct: purchased Receptor Biology, Inc
Procedure: I. In-vitro Determination of Affinity to CB1/CB2-Rezeptors
The in-vitro determination of the affinity of the inventive substituted azetidine compounds to CB1/CB2-Receptors is carried out as described in the publication of Ruth A. Ross, Heather C. Brockie et al., “Agonist-inverse agonist characterization at CB1 and CB2 cannabinoid receptors of L-759633, L759656 and AM630”, British Journal of Pharmacology, 126, 665-672, (1999). The respective parts of the descriptions are hereby incorporated by reference and form part of the present disclosure. The transfected human CB1 and CB2 receptor are obtained from Receptor Biology, Inc. The radioligand used for both receptors is [^3H]-CP55940.
The affinity of the inventive substituted azetidine compounds to CB1/CB2 receptors is determined as described above.

cannabinoid receptors [2] = assay: Mouse tetrad model, antagonistic effect against Win 55212-2; type: in vivo; design: unit not given here; settings: 5 mg/kg i.v. prior to Win 55212-2 1.25 mg/kg i.v.; male NMRI mice
From the text: (§1) Substances with affinity for cannabinoid receptors are known to produce a wide range of pharmacological effects. It is also known that intravenous administration of a substance with affinity for cannabinoid receptors in mice produces analgesia, hypothermia, sedation and catalepsy. Individually, none of these effects can be considered as proof that a tested substance has affinity for cannabinoid-receptors, since all of these effects are common for various classes of centrally active agents. However, substances, which show all of these effects, i.e. substances that are active in this so-called tetrad model are considered to have affinity for the cannabinoid receptors. It has further been shown that cannabinoid receptor antagonists are higly effective in blocking the effects of a cannabinoid agonist in the mouse tetrad model.
(§2) The tetrad model is described, for example, in the publication of A. C. Howlett et al, International Union of Pharmacology XXVII. Classification of Cannabinoid Receptors, Pharmacol Rev 54, 161-202, 2002 and David R. Compton et al., “In-vivo Characterization of a Specific Cannabinoid Receptor Antagonist (SR141716A): Inhibition of Tetrahydrocannbinol-induced Responses and Apparent Agonist Activity”, J. Pharmacol. Exp. Ther. 277, 2, 586-594, 1996. The corresponding parts of the description are hereby incorporated by reference.
(§3) Male NMRI mice with a weight of 20-30 g (Harlan, Barcelona, Spain) are used in all of the following experiments.
(§4) Before testing in the behavioral procedures given below, mice are acclimatized to the experimental setting. Pre-Treatment control values are determined for analgesia hot plate latency (in seconds), rectal temperature, sedation and catalepsy.
(§5) In order to determine the agonistic activty of the substance to be tested, the mice are injected intravenously with the substance to be tested or the vehicle alone. 15 minutes after injection, latency in hot plate analgesia is measured. Rectal temperature, sedation and catalepsy are measured 20 minutes after injection.
In order to determine the antagonistic activity the identical procedure is used as for the determination of the agonistic effects, but with the difference that the substance to be evaluated for its antagonistic activity is injectected 5 minutes before the intravenous injection of 1.25 mg/kg Win-55,212 a known cannabinoid-receptor agonist.
(§6) The hot plate analgesia is determined according to the method described in Woolfe D. et al. “The evaluation of analgesic action of pethidine hydrochloride (Demerol)”, J. Pharmacol. Exp. Ther. 80, 300-307, 1944. The respective description is hereby incorporated by reference and forms part of the present disclosure.
(§7) The mice are placed on a hot plate (Harvard Analgesimeter) at 55±0.5° C. until they show a painful sensation by licking their paws or jumping and the time for these sensations to occur is recorded. This reading is considered the basal value (B). The maximum time limit the mice are allowed to remain on the hot plate in absence of any painful response is 40 seconds in order to prevent skin damage. This period is called the cut-off time (PC).
(§8) Fifteen minuts after the administration of the substance to be tested, the mice are again placed on the hot plate and the afore described procedure is repeated. This period is called the post-treatment reading (PT).
(§9) The degree of analgesia is calculated from the formula: % MPE of Analgesia=(PT−B)/(PC−B)×100 • MPE Maximum possible effect. Determination of Sedation and Ataxia
(§10) Sedation and ataxia is determined according to the method described in Desmet L. K. C. et al. “Anticonvulsive properties of.Cinarizine and Flunarizine in Rats and Mice”, Arzneim. -Forsch. (Frug Res) 25, 9, 1975. The respective description is hereby incorporated by reference and forms part of the present disclosure.
The chosen scoring system is • 0: no ataxia; • 1: doubful; • 2: obvious calmness and quiet; • 3 pronounced ataxia; prior to as well as after treatment. […]

cannabinoid receptors [3] = assay: Mouse tetrad model, agonistic effect (hot plate, hypothermia, catalepsy, sedation); type: in vivo; design: key to Agonistic effect A: Hot-Plate test: % MPE = (PT−B)/(PC−B)×100; key to Agonistic effect D: Sedation: % sedation = mean score (0-3)/3×100; Agonistic effect B: Hypothermia: unit not given here; settings: 5 mg/kg i.v., male NMRI mice; for Agonistic effect A: Hot-Plate test: 15 minutes after injection; for Agonistic effect B: Hypothermia / Agonistic effect C: Catalepsy / Agonistic effect D: Sedation: 20 minutes after injection
From the text: as §1, §2, §3, §4, §5, §6, §7, §8, §9, §10
The chosen scoring system is • 0: no ataxia; • 1: doubful; • 2: obvious calmness and quiet; • 3 pronounced ataxia; prior to as well as after treatment.
The percentage of sedation is determined according to the formula: % of sedation=arithmetic mean/3×100 Hypothermia: […]

T1 sequence (P21554 whole entry): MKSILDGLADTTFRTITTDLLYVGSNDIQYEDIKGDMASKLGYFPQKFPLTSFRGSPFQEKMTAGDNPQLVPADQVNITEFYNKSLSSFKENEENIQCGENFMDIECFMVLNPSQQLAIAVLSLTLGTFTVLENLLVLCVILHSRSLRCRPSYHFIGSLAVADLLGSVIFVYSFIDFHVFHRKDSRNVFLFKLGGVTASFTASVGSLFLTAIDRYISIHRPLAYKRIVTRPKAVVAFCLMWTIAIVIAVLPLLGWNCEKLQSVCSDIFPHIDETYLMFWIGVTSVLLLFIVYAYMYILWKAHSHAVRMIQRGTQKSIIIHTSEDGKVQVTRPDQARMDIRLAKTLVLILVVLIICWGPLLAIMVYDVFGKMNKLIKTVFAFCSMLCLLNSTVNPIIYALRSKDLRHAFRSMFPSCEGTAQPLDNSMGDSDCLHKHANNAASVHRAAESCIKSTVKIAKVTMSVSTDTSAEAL

| SMILES | melting point [°C] | further results |
| --- | --- | --- |
| C[C@@H]1[C@@H](NS(=O)(=O)c2ccc(-c3ccccc3)cc2)CN1C(c1ccc(Cl)cc1)c1ccc(Cl)cc1 (relative stereo) | 145 to 148 | – |
| C[C@@H]1[C@@H](NS(=O)(=O)c2ccc(F)cc2)CN1C(c1ccc(Cl)cc1)c1ccc(Cl)cc1 [Example 33, N-{(2R,3S)-1-[Bis-(4-chloro-phenyl)-methyl]-2-methyl-azetidin-3-yl}-4-fluoro-benzenesulfonamide] | 154 to 158 | inhibition at 1 µM [1]: 71% |
| C[C@@H]1[C@@H](N(Cc2ccc(F)cc2)S(=O)(=O)c2ccc(F)cc2)CN1C(c1ccc(Cl)cc1)c1ccc(Cl)cc1 (stereo in doubt) | 75 to 78 | – |
| C[C@H]1C(NS(=O)(=O)c2ccc(F)cc2)CN1C(c1ccc(Cl)cc1)c1ccc(Cl)cc1 (mixture of isomers) | 154 to 157 | – |
| C[C@H]1[C@H](NC(=O)c2cc(F)cc(F)c2)CN1C(c1ccc(Cl)cc1)c1ccc(Cl)cc1 | 57 to 60 | – |
| CC(=O)c1ccc(S(=O)(=O)N[C@H]2CN(C(c3ccc(Cl)cc3)c3ccc(Cl)cc3)[C@@H]2C)cc1 (stereo in doubt) | 177 to 180 | – |
| C[C@@H]1[C@@H](NS(=O)(=O)c2ccc3ccccc3c2)CN1C(c1ccc(Cl)cc1)c1ccc(Cl)cc1 (stereo in doubt) | 156 to 160 | – |
| C[C@@H]1[C@@H](OS(=O)(=O)c2ccc(F)cc2)CN1C(c1ccc(Cl)cc1)c1ccc(Cl)cc1 (relative stereo) [Example 1, 4-Fluoro-benzenesulfonic acid-trans-1-[bis-(4-chloro-phenyl)-methyl]-2-methyl-azetidin-3-yl ester] | 105 to 107 | inhibition at 1 µM [1]: 60%; Antagonistic Effect A: Hot-Plate test (cannabinoid receptors [2]): 46; Antagonistic Effect C: Catalepsy (cannabinoid receptors [2]): 47 |
| Cc1c(S(=O)(=O)N[C@H]2CN(C(c3ccc(Cl)cc3)c3ccc(Cl)cc3)[C@@H]2C)cnn1-c1ccccc1 (stereo in doubt) | 173 to 176 | – |
| C[C@@H]1[C@@H](N(S(=O)(=O)c2ccc(F)cc2)S(=O)(=O)c2ccc(F)cc2)CN1C(c1ccc(Cl)cc1)c1ccc(Cl)cc1 | 60 to 64 | – |
| C[C@H]1[C@H](NC(=O)C2CCCCC2)CN1C(c1ccc(Cl)cc1)c1ccc(Cl)cc1 | 65 to 68 | – |
| C[C@H]1[C@H](N)CN1C(c1ccc(Cl)cc1)c1ccc(Cl)cc1 (stereo in doubt) | 134 to 136 | – |
| C[C@@H]1[C@@H](NS(=O)(=O)c2cc(Cl)cc(Cl)c2)CN1C(c1ccc(Cl)cc1)c1ccc(Cl)cc1 (relative stereo) [Example 18, N-{trans-1-[Bis-(4-chloro-phenyl)-methyl]-2-methyl-azetidin-3-yl}-3,5-dichloro-benzenesulfonamide] | 144 to 146 | inhibition at 1 µM [1]: 95% |
| C[C@@H]1[C@@H](NS(=O)(=O)CCc2cccc3ccccc23)CN1C(c1ccc(Cl)cc1)c1ccc(Cl)cc1 (stereo in doubt) | 123 to 128 | – |
| C[C@H]1[C@H](NC(=O)C(F)(F)F)CN1C(c1ccc(Cl)cc1)c1ccc(Cl)cc1 (stereo in doubt) (as salt: TFA) | 122 to 127 | – |
| C[C@@H]1[C@@H](NS(=O)(=O)c2ccc(Oc3ccc(Br)cc3)cc2)CN1C(c1ccc(Cl)cc1)c1ccc(Cl)cc1 (stereo in doubt) | 115 to 119 | – |
| C[C@@H]1[C@@H](NS(=O)(=O)c2ccc(Oc3ccccc3)cc2)CN1C(c1ccc(Cl)cc1)c1ccc(Cl)cc1 (stereo in doubt) | 160 to 162 | – |
| C[C@@H]1[C@@H](NS(=O)(=O)c2c(Cl)nc3sccn23)CN1C(c1ccc(Cl)cc1)c1ccc(Cl)cc1 (relative stereo) | 164 to 169 | – |
| C[C@@H]1C(N(C)S(=O)(=O)c2ccc(F)cc2)CN1C(c1ccc(Cl)cc1)c1ccc(Cl)cc1 (stereo in doubt) | 182 to 186 | – |
| Cc1c(S(=O)(=O)N[C@H]2CN(C(c3ccc(Cl)cc3)c3ccc(Cl)cc3)[C@@H]2C)sc2ccc(Cl)cc12 (stereo in doubt) | 105 to 108 | – |
| Cc1nn(C)c(C)c1S(=O)(=O)N[C@H]1CN(C(c2ccc(Cl)cc2)c2ccc(Cl)cc2)[C@@H]1C | 173 to 175 | – |
| C[C@@H]1[C@@H](NS(=O)(=O)c2ccc(S(C)(=O)=O)cc2)CN1C(c1ccc(Cl)cc1)c1ccc(Cl)cc1 (relative stereo) [Example 14, N-{trans-1-[Bis-(4chloro-phenyl)methyl]-2-methyl-azetidin-3-yl}-4-methylsulfonyl-benzenesulfonamide] | 202 to 204 | Agonistic effect A: Hot-Plate test (cannabinoid receptors [3]): 16; Agonistic effect B: Hypothermia (cannabinoid receptors [3]): 0; Agonistic effect C: Catalepsy (cannabinoid receptors [3]): 0; Agonistic effect D: Sedation (cannabinoid receptors [3]): 0; inhibition at 1 µM [1]: 82%; Antagonistic Effect A: Hot-Plate test (cannabinoid receptors [2]): 12; Antagonistic Effect B: Hypothermia (cannabinoid receptors [2]): 71; Antagonistic Effect C: Catalepsy (cannabinoid receptors [2]): 14; Antagonistic Effect D: Sedation (cannabinoid receptors [2]): 9 |
| CCCN([C@H]1CN(C(c2ccc(Cl)cc2)c2ccc(Cl)cc2)[C@@H]1C)S(=O)(=O)c1ccc(F)cc1 (stereo in doubt) | 91 to 97 | – |
| C[C@@H]1[C@@H](NS(=O)(=O)c2cccc3ccccc23)CN1C(c1ccc(Cl)cc1)c1ccc(Cl)cc1 (stereo in doubt) | 171 to 174 | – |
| C[C@@H]1[C@@H](NS(=O)(=O)c2cccc3nsnc23)CN1C(c1ccc(Cl)cc1)c1ccc(Cl)cc1 (relative stereo) [Example 15, 2,1,3-Benzothiadiazole-4-sulfonic acid {trans-1-[bis-(4-chloro-phenyl)-methyl]-2-methyl-azetidin-3-yl}-amide] | – | Agonistic effect A: Hot-Plate test (cannabinoid receptors [3]): 14; Agonistic effect B: Hypothermia (cannabinoid receptors [3]): 0; Agonistic effect C: Catalepsy (cannabinoid receptors [3]): 0; Agonistic effect D: Sedation (cannabinoid receptors [3]): 0; inhibition at 1 µM [1]: 66%; Antagonistic Effect A: Hot-Plate test (cannabinoid receptors [2]): 72; Antagonistic Effect B: Hypothermia (cannabinoid receptors [2]): 100; Antagonistic Effect C: Catalepsy (cannabinoid receptors [2]): 57; Antagonistic Effect D: Sedation (cannabinoid receptors [2]): 71 |
| C[C@@H]1[C@@H](NS(=O)(=O)c2csc3ccccc23)CN1C(c1ccc(Cl)cc1)c1ccc(Cl)cc1 (relative stereo) [Example 25, Benzo[b]thiophene-3-sulfonic acid {trans-1-[bis-(4-chloro-phenyl)-methyl]-2-methyl-azetidin-3-yl}amide] | 192 to 197 | inhibition at 1 µM [1]: 87% |
